We go through eight compounds from patent publication US11505529B2, “8-phenyl-isoquinolines and pharmaceutical composition thereof used in the treatment of irritable bowel syndrome” (NATIONAL TAIWAN UNIVERSITY, priority 2017, dated 2022).

Counter-ions that a name gives are not always drawn. Where only a bound is given, the exact number is not on record here.

One data set concerns GW mice. As to the kind of experiment: Intestinal pain (visceromotor response to colorectal distension) in mice with Giardia postinfection plus water avoidance stress (GW). Type of data set: in vivo, C57BL/6 mice. The following applies: for intestinal pain (VMR): p.o. single dose 5 mg/Kg, 90 minutes before analysis. From the text:
Two animal models of IBS that had shown visceral hypersensitivity were used in the study, including dual challenge of postinfection combined with psychological stress, and post-inflammation. In the first model, mice were divided into two groups, including one group subjected to dual triggers of Giardia postinfection and water avoidance stress (GW) and the one group pair-fed with saline and non-handled (PN) as uninfected unstressed normal controls. Axenic Giardia lamblia trophozoites (strain GS/M, ATCC 50581) were cultured in vitro and harvested at log-phase as described in Singer et al., (T-cell-dependent control of acute Giardia lamblia infections in mice. Infect. Immun. 2000; 68:170-175) and Davids et al. (Polymeric immunoglobulin receptor in intestinal immune defense against the lumen-dwelling protozoan parasite Giardia. J Immunol 2006; 177:6281-6290). Mice were orally gavaged with 10^7 Giardia trophozoites suspended in 0.2 ml of sterile phosphate-buffered saline (PBS) or pair-fed with the same volume of PBS. The status of Giardia infection was verified after 4-7 days by enumeration of motile trophozoites in the small intestine following a cold-shock protocol (disclosed in Scott K G, Yu L C H, Buret A G. Role of CD8+ and CD4+ T lymphocytes in jejunal mucosal injury during murine giardiasis. Infect. Immun. 2004; 72:3536-3542 and Scott K G, Meddings J B, Kirk D R, et al. Intestinal infection with Giardia spp. reduces epithelial barrier function in a myosin light chain kinase-dependent fashion. Gastroenterology 2002; 123:1179-1190). On the sixth week postinfection in which the trophozoites could not be detected in the small intestine (post-clearance phase), mice were subjected to chronic psychological stress. The procedure of WAS involved placing the mouse on a platform (3×6 cm) in the center of a container (56×50 cm) with 3 cm (vertical height) of room temperature water. Mice remained on the platform for 1 hr to avoid water immersion as a psychological stress without physical harm. The 1-hr stress sessions were carried out for 10 consecutive days to mimic chronic repeated stress, and were performed between 9:00 and 12:00 to minimize the effect of the circadian rhythm. Uninfected and unstressed non-handled animals were kept in their cages as normal controls. On the last day of the stress session, intestinal pain was measured in mice.
For testing of anti-nociceptive effects in the GW model, mice were administered novel 5-HT7R ligands by a single dose 90 or 240 minutes prior to intestinal pain measurement. In additional settings, the novel ligands were repeatedly administered for 10 consecutive days 30 minutes before the start of each stress session and intestinal pain was measured immediately after the last stress session.
Abdominal pain was measured by visceromoter response (VMR) to colorectal distension (CRD) in mice following previously described methods with slight modification (Lu C L, Hsieh J C, Dun N J, et al. Estrogen rapidly modulates 5-hydroxytrytophan-induced visceral hypersensitivity via GPR30 in rats. Gastroenterology 2009; 137:1040-1050; Hong S, Zheng G, Wu X, et al. Corticosterone mediates reciprocal changes in CB 1 and TRPV1 receptors in primary sensory neurons in the chronically stressed rat. Gastroenterology 2011; 140:627-637 e4). Briefly, electrodes made from Teflon-coated stainless steel wire (A-M systems, Carlsborg, Wash.) were implanted in the abdominal external oblique muscles of mice at least 15 days prior to VMR experiments. The electrodes were exteriorized onto the back of the neck. Mice were habituated in the plexiglass cylinder for 30 minutes per day for 3 consecutive days before VMR experiments. The cylinder was used for partial restraint of conscious mice during the CRD experiments. For recording, electrodes were connected to an electromyogram acquisition system (AD instruments, New south wales, Australia). […]

The subject of another data set is colonic tissues. As to the kind of experiment: Colonic histology (adverse response) after treatment in GW and TNBS mice. The source says:
Intestinal tissues were fixed in 4% paraformaldehyde (PFA) and embedded in paraffin wax with proper orientation of the crypt to villus axis before sectioning. Sections of 5-μm thickness were deparaffinized with xylene and graded ethanol, stained with hematoxylin and eosin (H&E), and observed under a light microscope.

In a further data set the test system is TNBS mice. In words: Intestinal pain (visceromotor response to colorectal distension) in post-TNBS colitis mice. The data set is classed as in vivo, C57BL/6 mice. The following applies: for intestinal pain (VMR): p.o. single dose 5 mg/kg, 90 minutes before analysis. The protocol: In the second model, intestinal inflammation was induced by intracolonic administration of 10% 2,4,6-trinotrobenzene sulfonic acid (TNBS) in 0.2 ml of 50% ethanol (Sigma-Aldrich, St. Louis, Mo., USA) via a 22-gauge feeding needle. Sham controls were given PBS in the same volume. Intestinal inflammatory parameters and pain levels were measured on various time points after TNBS administration.
For testing of anti-nociceptive effects in the post-TNBS model, mice were administered with novel 5-HT7R ligands by a single dose at 90 or 240 minutes before or by repeated administration of multiple doses for 10 consecutive days prior to intestinal pain measurement.
Abdominal pain was measured by visceromoter response (VMR) to colorectal distension (CRD) in mice following previously described methods with slight modification (Lu C L, Hsieh J C, Dun N J, et al. Estrogen rapidly modulates 5-hydroxytrytophan-induced visceral hypersensitivity via GPR30 in rats. Gastroenterology 2009; 137:1040-1050; Hong S, Zheng G, Wu X, et al. Corticosterone mediates reciprocal changes in CB 1 and TRPV1 receptors in primary sensory neurons in the chronically stressed rat. Gastroenterology 2011; 140:627-637 e4). Briefly, electrodes made from Teflon-coated stainless steel wire (A-M systems, Carlsborg, Wash.) were implanted in the abdominal external oblique muscles of mice at least 15 days prior to VMR experiments. The electrodes were exteriorized onto the back of the neck. Mice were habituated in the plexiglass cylinder for 30 minutes per day for 3 consecutive days before VMR experiments. The cylinder was used for partial restraint of conscious mice during the CRD experiments. For recording, electrodes were connected to an electromyogram acquisition system (AD instruments, New south wales, Australia). The colon was distended by inflating a balloon catheter inserted intra-anally such that it ended 1.5 cm proximal to the anus. Mice were subjected to […] 10-second distensions (15, 40, and 65 mmHg) with 3-min rest intervals. The electromyographic (EMG) activity was amplified and digitized using a transducer (AD instruments) connected to a P511 AC amplifier (Grass instruments, Calif., USA) and Powerlab device with Chart 5 software (AD instruments). The EMG activity was rectified, and the response was recorded as the increase in the area under the curve (AUC) of the EMG amplitude during CRD versus the baseline period.

The nature of the next data set: log D. The data set is classed as physicochemical.
The target in another data set is 5-HT7R (Homo sapiens, UniProt P34969). In words: 5-HT7 receptor binding affinity.
The target in another data set is 5-HT2AR (Homo sapiens, UniProt P28223). As to the kind of experiment: 5-HT2A receptor binding affinity.
Sequence of 5-HT2AR (P28223 whole entry): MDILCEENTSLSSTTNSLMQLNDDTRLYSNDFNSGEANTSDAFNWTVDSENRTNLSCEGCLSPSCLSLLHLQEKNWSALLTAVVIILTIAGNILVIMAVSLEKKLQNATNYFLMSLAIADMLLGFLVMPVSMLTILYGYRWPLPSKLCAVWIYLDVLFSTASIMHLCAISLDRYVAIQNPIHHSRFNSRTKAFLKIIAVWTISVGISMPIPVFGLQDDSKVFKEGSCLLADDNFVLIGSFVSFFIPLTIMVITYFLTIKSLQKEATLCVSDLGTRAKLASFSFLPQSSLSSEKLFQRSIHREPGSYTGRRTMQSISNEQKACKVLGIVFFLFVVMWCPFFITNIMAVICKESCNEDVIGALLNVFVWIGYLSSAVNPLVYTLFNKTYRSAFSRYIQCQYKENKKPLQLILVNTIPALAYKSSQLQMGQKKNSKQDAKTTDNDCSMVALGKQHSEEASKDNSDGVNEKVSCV

Sequence of 5-HT7R (P34969 whole entry): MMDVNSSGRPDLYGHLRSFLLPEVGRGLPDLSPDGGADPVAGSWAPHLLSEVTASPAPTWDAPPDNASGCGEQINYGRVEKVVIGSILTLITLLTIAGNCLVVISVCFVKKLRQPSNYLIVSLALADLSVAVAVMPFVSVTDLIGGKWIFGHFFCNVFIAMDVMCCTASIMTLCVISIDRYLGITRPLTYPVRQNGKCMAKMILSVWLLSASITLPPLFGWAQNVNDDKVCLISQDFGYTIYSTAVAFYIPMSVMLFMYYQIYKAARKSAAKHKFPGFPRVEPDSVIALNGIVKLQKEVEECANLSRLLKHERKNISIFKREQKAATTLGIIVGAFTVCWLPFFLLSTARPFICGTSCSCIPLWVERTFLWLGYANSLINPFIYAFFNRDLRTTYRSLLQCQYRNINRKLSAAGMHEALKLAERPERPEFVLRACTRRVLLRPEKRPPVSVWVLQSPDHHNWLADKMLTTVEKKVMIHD

For `Cc1[nH]cnc1CN1CCc2c(c3ccccc3n2C)C1=O` [ALN, alosetron hydrochloride], the “intestinal pain (VMR)” value was “reduced intestinal pain but was less efficient compared to compound 8” with GW mice (GW mice) and “had no effect on intestinal pain” in the data set with TNBS mice. Besides, the “mice with hyperemia and granulocyte infiltration in the colonic tissues” value in the data set on colonic tissues (C57BL/6, mouse, in vivo) is given as 14%. For the same compound, the colonic histology result with colonic tissues (p.o. 5 mg/Kg, GW and TNBS mice, hydrochloride, 5 mg/kg) is “Hyperemia (*) and granulocyte infiltration (arrowheads) were observed”.

Compound `COc1ccc(-c2c(O)c(OC)cc3c2CN(CCc2ccccc2F)CC3)c(OC)c1` [Compound 6] showed a logD in “log D” of 3.98. Besides, the results for the Ki on 5-HT7R and on 5-HT2AR were 3.5 nM and 2.2 nM, respectively.

Consider `COc1ccccc1-c1c(O)c(OC)cc2c1CN(CCCc1ccc([N+](=O)[O-])cc1)CC2` [Compound 7, 6-methoxy-8-(2-methoxyphenyl)-2-(3-(4-nitrophenyl)propyl)-1,2,3,4-tetrahydroisoquinolin-7-ol], for which the logD in the data set “log D” turned out to be 3.66. In addition, the Ki is 1.4 nM on 5-HT7R and 70 nM on 5-HT2AR.

Compound `COc1ccccc1-c1c(O)c(OC)cc2c1CN(CCCc1ccncc1)CC2` [Compound 8, 6-methoxy-8-(2-methoxyphenyl)-2-(3-(pyridin-4-yl)propyl)-1,2,3,4-tetrahydroisoquinolin-7-ol] registered a logD in “log D” of 1.68. The “intestinal pain, time response” value in the data set on GW mice (GW mice, 5 mg/kg p.o. at 1.5, 4 or 12 hours prior to pain measurement) is on record as “Reduction of pain levels was seen at three time points”. Further, the “intestinal pain, dose response” value was “Dose-dependent analgesic effects” in the data set on GW mice (GW mice, i.p. at 0.05 and 0.5 mg/kg, 90 minutes before analysis (FIG. 9A)); “Dose-dependent analgesic effects” in the data set on GW mice (GW mice, p.o. at 1.5 and 5 mg/kg, 90 minutes before analysis (FIG. 9B)). In addition, the “intestinal pain after repeated administration” value in the data set on GW mice (GW mice, p.o. multiple doses over 10 days) is on record as “decreased intestinal pain in GW mice in a dose-dependent manner”; with TNBS mice (multiple doses), “reduced intestinal pain”. Further, the “intestinal pain (VMR)” value in the data set with GW mice (GW mice) was “strongest inhibition of intestinal pain to baseline levels”. Besides, the Ki at 5-HT7R is 5.8 nM; on 5-HT2AR, greater than 1000 nM.

As to `COc1ccccc1-c1c(O)c(OC)cc2c1CN(CCCc1cccnc1)CC2` [Compound 9, 6-methoxy-8-(2-methoxyphenyl)-2-(3-(pyridin-3-yl)propyl)-1,2,3,4-tetrahydroisoquinolin-7-ol], in “log D”, the logD was 1.7. The figures for the Ki on 5-HT7R and at 5-HT2AR were 4.9 nM and greater than 1000 nM, respectively.

For the compound `COc1ccccc1-c1c2c(cc(OC)c1OC)CCN(CCCc1ccncc1)C2` [Compound 10, 6,7-dimethoxy-8-(2-methoxyphenyl)-2-(3-(pyridin-4-yl)propyl)-1,2,3,4-tetrahydroisoquinoline], the logD in the data set “log D” is 2.93. Moreover, the Ki on 5-HT7R is 7.1 nM; at 5-HT2AR, greater than 1000 nM.

Consider `CN(C)C(=O)C(CCN1CCC(O)(c2ccc(Cl)cc2)CC1)(c1ccccc1)c1ccccc1` [LPM, loperamide hydrochloride, reference compound], for which the “intestinal pain (VMR)” value in the data set with GW mice (GW mice) is reported as “had no effect on intestinal nociception”; with TNBS mice it was “had no effect on intestinal pain”.

Consider `CC1CCN(CC[C@H]2CCCN2S(=O)(=O)c2cccc(O)c2)CC1.Cl` [SB7, SB-269970 hydrochloride, reference compound], for which the entries for the “intestinal pain (VMR)” value in the data set on GW mice (GW mice) and in the data set with TNBS mice were “had no effect on intestinal nociception” and “had no effect on intestinal pain”, respectively. Moreover, in the data set on GW mice (i.p., 0.5 mg/Kg, IBS-like mouse model (FIG. 7)), the “intestinal pain measured by VMR” value is on record as “significantly inhibited intestinal pain levels”.

Broadly, the logD is lipophilicity at a set pH, counting ionised and neutral species. A higher logD goes with higher lipophilicity. For orientation: Ki means the dissociation constant of the complex between target and ligand, obtained from inhibition or displacement.
